The text below walks through data of US7115574B2, “System and method for support legacy operating system booting in a legacy-free system” (priority 2001, dated 2006).

The test system of data set [1] is N9 clone of murine microglial cells. Nature of the data set: TNF-α, IL-6 and NO2− production by LPS+IFN-γ activated microglia. Format: cell-based. Here is the method:
See Delgado, R., Carlin, A., Alraghi, L., Demitri, M., Meda, L., Galimberti, D., Pierluigi, B., Lipton, J. M., Catania, A., Melanocortin Peptides Inhibit Production of Proinflammatory Cytokines and Nitric Oxide by Activated Microglia, 63 J. of Leukocyte Biol. 740 (1998). […] The N9 clone of murine microglial cells was obtained by immortalization of embryonic brain cultures with the 3RV retrovirus carrying an activated v-myconcogene. N9 cells were cultured in T-75-cm^2 culture flasks (Coming, Cambridge, Mass.) and maintained at 37° C. in a humidified incubator under 5% CO2 atmosphere in RPMI 1640 supplemented with 2 mM L-glutamine, 50 U/mL penicillin G, 50 μg/mL streptomycin sulfate (GIBCO-BBL, Paisley, UK), and 10% heat-inactivated fetal bovine serum (FBS, Hyclone Lab, Inc., Logan, Utah) until experiments were performed. Cells were used between the first and the tenth passage.
Sub-confluent microglial cells were washed twice with phosphate-buffered saline (PBS) and incubated with trypsin 0.025% and ethylenediaminetetraacetate (EDTA) 0.02% without calcium and magnesium for 3 min. at 37° C. to detach the cells from the culture flask. Cells were then resuspended in medium and incubated in 24-well tissue-culture plates at a concentration of 2×10^5 cells/mL for 16 h in a humidified incubator (37° C., 5% CO2). Growth medium was removed and cell monolayers were stimulated with 10 ng/mL lipopolysaccharide (LPS, from Escherichia coli 055:B5, Sigma Chemical Co., St. Louis, Mo.) plus 1 U/ml, murine IFN-γ (Sigma). […] Although production of TNF-α and NO was reduced to even much lower concentrations of the peptides, concentrations in the micromolar range had the most profound and consistent inhibitory effects. […] Cell-free supernatants were harvested after 24 h incubation and assayed for TNF-α, IL-6 and NO2. Viability of cells was assessed by trypan blue exclusion for each experimental condition: it was consistently >98%. Dexamethasone (Sigma) and N-monomethyl-L-arginine (L-NMMA: 100 μM, Cayman Chemical, Ann Arbor, Mich.) were used as positive controls for TNF-α and NO inhibition, respectively. Tests were repeated in at least three independent experiments and assays were performed in triplicate.
TNF-α bioactivity was measured in supernatants of cell cultures by standard cytotoxicity assay using L929 cells and recombinant human TNF-α (Sigma) as standard. The detection limit of the bioassay was 20 pg/mL. IL-6 was measured using a commercial murine enzyme-linked immunosorbent assay (ELISA: RPN 2714, Amersham, Little Chalfont, UK).
NO is rapidly oxidized to nitrite in culture medium, and nitrite (NO2^−) concentration is an indicator of NO production. Cell-free culture supernatants were mixed with equal amounts of Griess reagent (1% sulfanilamide, 0.1% naphtylethylenediamide in 2.5% phosphoric acid) in wells of 96-well ELISA plates. Samples were incubated at room temperature for 10 min and absorbance was measured at 540 nm with the use of a microplate reader. Nitrite […] concentrations were calculated using a sodium nitrite standard curve.
Effects of melanocortin peptides on cytokine and NO production were evaluated by repeated measures analysis of variance followed by Dunnet's test for specific comparisons. Probability values less than 0.05 were considered significant.

For data set [2] the test system is unchanged. Nature of the data set: Northern blot of TNF-α and iNOS mRNA in activated microglia. Format: cell-based. Conditions: peptide prior to LPS and IFN-γ. Here is the method:
Total cellular RNA was extracted from 10^6 adherent microglial cells plated in six-well tissue culture plates (Corning). Electrophoresis of RNA samples (10 μg/lane) was performed in 1% agarose/2.2 M formaldehyde gels and the gels subsequently blotted onto nylon filters by capillary action and baked for 2 h before prehybridization. The cDNA fragments encoding murine TNF-α and mouse macrophage iNOS were ^32P-labeled using the Ready-To-Go DNA Labeling Kit (Pharmacia, Uppsala, Sweden) before hybridization of nylon filters and autoradiography. Blots were subsequently rehybridized with human glyceraldehyde-3-phosphate dehydrogenase (G-3-PDH) cDNA probe as an internal control (Clontech Laboratories, Inc., Palo Alto, Calif.).

The subject of data set [3] is C. albicans. Nature of the data set: C. albicans colony forming units (candidacidal activity). It is filed as cell-based. Conditions: FIG. 2. As for the experimental part:
C. albicans (clinical isolate) was obtained from the collection of the Department of Microbiology, Ospedale Maggiore di Milano and maintained on Sabouraud's agar slants and periodically transferred to Sabouraud's agar plates and incubated for 48 hours at 28° C. To prepare a stationary growth phase yeast, a colony was taken from the agar plate and transferred into 30 ml Sabouraud-dextrose broth and incubated for 72 hours at 32° C. Cells were centrifuged and suspended in Hank's balanced salt solution (“HBSS”) to the desired concentration. Viability, determined by the exclusion of 0.01% methylene blue, remained >98%.
C. albicans (1×10^6/ml in HBSS) was incubated in the presence or absence or α-MSH(1-13) (SEQ ID NO: 3) or (11-13) (SEQ ID NO: 1) at concentrations in the range of 10^−15 M to 10^−6 M for 2 hours at 37° C. Cells were then washed in cold distilled water and diluted with HBSS to a concentration of 100 organisms/ml. One-ml aliquots were dispensed on blood agar plates and incubated for 48 hours at 37° C. Organism viability was estimated from the number of colonies formed.
In subsequent experiments using familiar procedures we compared activity of α-MSH(4-10) (SEQ ID NO: 10), (6-13) (SEQ ID NO: 2), (11-13) (SEQ ID NO: 1), ACTH(1-39) (SEQ ID NO: 9), (18-39) (SEQ ID NO: 11) and fluconazole, the latter an established antifungal agent. Melanocortin peptides and fluconazole were tested in concentrations of 10^−6 M to 10^−4 M. There were at least six replicates for each concentration of peptide. […]

For data set [4], the system named is C. albicans. The data set can be described thus: Horse serum-induced germ tube formation (germination) of C. albicans. It is filed as cell-based. The note with it: 10^−6M, 60 minutes at 37° C. after horse serum induction. As for the experimental part: C. albicans from stationary phase cultures were washed twice with distilled water and suspended in HBSS to a final concentration of 2×10^6/ml. Hyphal growth was induced by addition of 10% inactivated horse serum (GIBCO/BRL, Great Britain) to yeast incubated for 45 minutes at 37° C. with continuous shaking. Horse serum was removed by washing cells twice with HBSS and incubation was continued for 60 minutes at 37° C. in the presence of α-MSH(1-13) (SEQ ID NO: 3), (6-13) (SEQ ID NO: 2) or (11-13) (SEQ ID NO: 1) at a concentration of 10^−6M with continuous shaking. The percentage of filamentous cells was evaluated under a light microscope with the aid of hemocytometer. Experiments were run in triplicate and at least 200 cells were scored. Photomicrographs were taken with a MC100 camera attached to an Axioskop Zeiss microscope.

For data set [5] the following is noted: Lipton and Catania, Immunol. Today 1997; cited from earlier work.
[6] abbreviates: microglia stimulated with LPS+IFN-γ for 24 hr, micromolar concentrations.

For the substance “ACTH(1-24): melanocortin peptide ACTH(1-24) (Sigma) (SYSMEHFRWGKPVGKKRRPVKVYP; Designed polypeptide with anti-inflammatory, anti-microbial, anti-fungal, and anti-viral properties.) [reference compound]”, the “concentration most effective at inhibiting cytokine formation” value in data set [1] (LPS+IFN-γ stimulated microglia, 1-100 μM tested) fell in the range of 10 to 25 µM. In data set [1] (setting [6]), the “reduction of production of IL-6” value turned out to be 65%, the “reduction of production of NO2^−” value turned out to be 41% and the “reduction of production of TNF-α” value is given as 38%. Besides, the “transcription levels (mRNA) for TNF-α and iNOS” value in data set [2] is reported as “inhibition of mRNA transcription”.

“HFRWGKPV (Ac-HFRWGKPV-NH2) [α-MSH(6-13), octapeptide fragment of α-MSH]”: in the data set on C. albicans [3] (10^−4M melanocortin peptides), the “relative potency in reducing C. albicans viability” value is given as “most effective”. Moreover, the “reduction in the number of filamentous cells / inhibition of germ tube formation” value in the data set on C. albicans [4] is on record as “approximately 50%”.

Consider “α-MSH(4-10): core α-MSH sequence (4-10) [reference compound]”, for which, in the data set with C. albicans [3] (10^−4M peptide as printed), the “inhibition of CFU” value is recorded as “approximately 50%”. For the same substance, the toxicity entry in data set [5] was “very low toxicity”.
